According to patent publication US9408393B2, “Bismuth-thiols as antiseptics for agricultural, industrial and other uses” (Microbion Corporation, priority 2010, dated 2016):

Legend:
[1] = tested on: Mycobacterium smegmatis; assay: Single-point BisEDT-antibiotic combination FICI; format: cell-based; conditions: Msmeg 817
[2] = tested on: Staphylococcus aureus (SA, MRSA); assay: Single-point BisEDT-antibiotic combination FICI; format: cell-based; conditions: MRSA 773
[3] = tested on: Enterococcus faecalis; assay: Single-point BisEDT-antibiotic combination FICI; format: cell-based; conditions: E Fc 3121
[4] = tested on: Escherichia coli; assay: Single-point BisEDT-antibiotic combination FICI; format: cell-based; conditions: EC 2232
[5] = tested on: Klebsiella pneumoniae; assay: Single-point BisEDT-antibiotic combination FICI; format: cell-based; conditions: KP 1231
[6] = tested on: Pseudomonas aeruginosa; assay: Single-point BisEDT-antibiotic combination FICI; format: cell-based; conditions: PA 1380
[7] = tested on: Burkholderia cepacia; assay: Single-point BisEDT-antibiotic combination FICI; format: cell-based; conditions: Bcep 1756
[8] = tested on: Bukholderia multivorans; assay: Single-point BisEDT-antibiotic combination FICI; format: cell-based; conditions: Bmult 5665
[9] = tested on: Acinetobacter baumanii; assay: Single-point BisEDT-antibiotic combination FICI; format: cell-based; conditions: Abau 2594
[10] = tested on: Streptococcus pneumoniae (SP, PRSP); assay: Single-point BisEDT-antibiotic combination FICI; conditions: PRSP 5348
[11] = tested on: P. aeruginosa; assay: Checkerboard broth microdilution MIC and FICI; format: cell-based, Pseudomonas aeruginosa; conditions: for MIC (μg/mL) Alone: compound alone
[12] = tested on: Gram-negative pathogenic bacteria; assay: Checkerboard broth microdilution MIC and FICI; format: cell-based; conditions: for MIC (μg/mL) Alone: compound alone; for FICI, Fractional Inhibitory Concentration Index: in combination with Cefotaxime
Procedure: The effects of combinations of microparticulate Bis-EDT and four Bis-EDT analogs prepared as described above, and other agents against representative strains of several Gram-negative pathogenic bacteria were tested. A modification of a common laboratory method was used to determine synergism (FICI≦0.5), enhancement (0.5<FICI≦1.0), antagonism (FICI>4.0) and indifference (1.0<FICI≦4.0) used fractional inhibitory concentrations (FICs) and FIC indices (FICI) (Eliopoulos G and R Moellering. 1991. Antimicrobial combinations. In Antibiotics in Laboratory Medicine, Third Edition, edited by V Lorian. Williams and Wilkins, Baltimore, Md., pp. 432-492; Odds, 2003 J. Antimicrob. Chemother. 52(1):1). The checkerboard technique was used to determine FIC indices and was employed in this study.
Stock solutions of all test articles were prepared at 40× the final target concentration in the appropriate solvent. […] The final drug concentrations in the FIC assay plates were set to bracket the MIC value of each agent for each test organism, unless the strain was totally resistant to the test agent. […] The test organisms were originally received from clinical sources, or from the American Type Culture Collection. Upon receipt, the isolates were streaked onto Tryptic Soy Agar II (TSA). Colonies were harvested from these plates and a cell suspension was prepared in an appropriate broth growth medium containing cryoprotectant. Aliquots were then frozen at −80° C. The frozen seeds of the organisms to be tested in a given assay were thawed, streaked for isolation onto TSA plates, and incubated at 35° C. All organisms were tested in Mueller Hinton II Broth (Becton Dickinson, Lot No. 9044411). The broth was prepared at 1.05× normal weight/volume to offset the 5% volume of the drugs in the final test plates.
Minimal Inhibitory Concentration (MIC) values were previously determined using the broth microdilution method for aerobic bacteria (Clinical and Laboratory Standards Institute (CLSI). Methods for Dilution Antimicrobial Susceptibility Tests for Bacteria That Grow Aerobically; Approved Standard—Eighth Edition. CLSI document M07-A8 [ISBN 1-56238-689-1]. Clinical and Laboratory Standards Institute, 940 West Valley Road, Suite 1400, Wayne, Pa. 19087-1898 USA, 2009.).
FIC values were determined using a broth microdilution method previously described (Sweeney et al., 2003 Antimicrob. Agents Chemother. 47(6):1902-1906). To prepare the test plates, automated liquid handlers (Multidrop 384, Labsystems, Helsinki, Finland; Biomek 2000 and Multimek 96, Beckman Coulter, Fullerton Calif.) were used to conduct serial dilutions and liquid transfers.
The appropriate wells of standard 96-well microdilution plates (Falcon 3918) were filled with 150 μL of the appropriate solvent in columns 2-12 using the Multidrop 384. Three hundred microliters of each secondary test drug was added to each well in Column 1 of the plates. These plates were used to prepare the drug “mother plates” which provided the serial drug dilutions for the drug combination plates. The Biomek 2000 was used to transfer 150 μL of each secondary drug solution (40×) from the wells in Column 1 of the mother plate and to make eleven 2-fold serial dilutions. Mother plates of Bis-EDT (and analogs) were serial diluted top to bottom by hand, using a multichannel pipette. Two mother plates, one for each secondary drug and one for Bis-EDT (or analogs), were combined to form a “checkerboard” pattern by transfer of equal volumes (using a multi-channel pipette) to the drug combination plate. Row H and Column 12 each contained serial dilutions of one of the agents alone for determination of the MIC.
The “daughter plates” were loaded with 180 μL of test medium using the Multidrop 384. Then, the Multimek 96 was used to transfer 10 μL of drug solution from each well of the drug combination mother plate to each corresponding well of the daughter plate in a single step.

[13] = tested on: S. aureus strains; assay: In vitro inhibition from PMMA cement bead vehicle; format: cell-based, Staphylococcus aureus; conditions: with and without Tobramicin and Vancomycin
[14] = tested on: S. aureus; assay: Contaminated open fracture, rat femur critical defect model; format: in vivo; conditions: BT gel 5 mg/ml, 1 ml in defect, with Cefazolin 5 mgKg^−1 s.c. twice daily 3 days, day 14
Source text: Standard errors of the mean are shown as error bars. Animals euthanized early are not excluded from the analysis, however samples from one animal in group 2 have been excluded due to gross contamination.
The aim of this study was to determine whether BTs will reduce infection in a contaminated open fracture model either on their own or with antibiotics. The contaminated rat femur critical defect model is a well-accepted model and was used for the experiments described in this Example. This model offers a standardized model for comparing various possible treatments and their effects on reducing infection and/or improving healing.
Three formulations of microparticulate BTs were produced in a clinically useful hydrogel gel form as described herein.
Two treatment arms were used: in the first arm, BT was used singularly; in the second arm BT was used in conjunction with a systemic antibiotic (ABx).
Six hours after inoculation with S. aureus, the wound was debrided, irrigated with saline and 1 ml of BT gel inserted within the defect.
Six hours after inoculation with S. aureus, the wound was debrided, irrigated with saline and 1 ml of BT gel added inserted within the defect. The antibiotic used was Cefazolin at a dose equivalent to 5 mgKg^−1 delivered via sub-cutaneous injection twice daily for a total of 3-days following the injury. The first dose was administered immediately prior to debridement.
Six hours after inoculation with S. aureus, the wound was debrided and irrigated with saline. The control animals were also treated with Cefazolin as per the regime described above.
The procedure for the in vivo rat injury model was performed as described by Chen et al. (2002 J. Orthop. Res. 20:142; 2005 J. Orthop. Res. 23:816; 2006 J. Bone Joint Surg. Am. 88:1510; 2007 J. Orthop. Trauma 21:693). The rats were anesthetized and prepped for surgery. The anterolateral aspect of the femoral shaft was exposed through a 3-cm incision. The periosteum and attached muscle was stripped from the bone. A polyacetyl plate (27×4×4 mm) was placed on the anterolateral surface of the femur. The plates were predrilled to accept 0.9-mm diameter threaded Kirschner wires. The bases of these plates were formed to fit the contour of the femoral shaft. Pilot holes were drilled through both cortices of the femur using the plate as a template and threaded Kirschner wire was inserted through the plate and femur. The notches that were 6 mm apart on the plate served as a guide for bone removal. A small oscillating saw was used to create the defect while the tissue was cooled by continuous irrigation in an effort to prevent thermal damage.
Several groups of 10 animals each were inoculated with 1×10^5 CFU of S. aureus and treated with BT alone or in combination with antibiotics 6 hours post-inoculation as described above. The groups were as follows: Bis-EDT gel; MB-11 gel; MB-8-2 gel; Bis-EDT gel & Abx; MB-11 gel & Abx; MB-8-2 gel & Abx; Control (Abx alone).
Animals were euthanized 14 days after surgery and bone and hardware sent for microbiological analysis, the results of which are shown in FIG. 7.

[15] = P. aeruginosa 103, in combination with Cefepime
[16] = P. aeruginosa 103, in combination with Cefotaxime
[17] = P. aeruginosa 1381, in combination with Cefepime
[18] = P. aeruginosa 1384, in combination with Cefepime
[19] = P. aeruginosa 1474, in combination with Cefepime
[20] = P. aeruginosa 1479, in combination with Cefepime
[21] = P. aeruginosa 2566, in combination with Cefepime
[22] = P. aeruginosa 2568, in combination with Cefepime

Molecule | FICI, single-point BisEDT-antibiotic combination [1] | MIC (μg/mL) Alone ([11]; P. aeruginosa 103) [µg/mL] | FICI, Fractional Inhibitory Concentration Index [11, 15] | FICI, Fractional Inhibitory Concentration Index [11, 16] | MIC (μg/mL) Alone ([11]; P. aeruginosa 1381) [µg/mL] | FICI, Fractional Inhibitory Concentration Index [11, 17] | MIC (μg/mL) Alone ([11]; P. aeruginosa 1384) [µg/mL] | FICI, Fractional Inhibitory Concentration Index [11, 18] | MIC (μg/mL) Alone ([11]; P. aeruginosa 1474) [µg/mL] | FICI, Fractional Inhibitory Concentration Index [11, 19] | MIC (μg/mL) Alone ([11]; P. aeruginosa 1479) [µg/mL] | FICI, Fractional Inhibitory Concentration Index [11, 20] | MIC (μg/mL) Alone ([11]; P. aeruginosa 2566) [µg/mL] | FICI, Fractional Inhibitory Concentration Index [11, 21] | MIC (μg/mL) Alone ([11]; P. aeruginosa 2568) [µg/mL] | FICI, Fractional Inhibitory Concentration Index [11, 22] | MIC (μg/mL) Alone ([12]; K. pneumoniae 1346) [µg/mL] | FICI, Fractional Inhibitory Concentration Index ([12]; K. pneumoniae 1346) | MIC (μg/mL) Alone ([12]; K. pneumoniae 1355) [µg/mL] | FICI, Fractional Inhibitory Concentration Index ([12]; K. pneumoniae 1355) | also measured
NNC(=O)c1ccncc1 [Isoniazid] | 0.88 | – | – | – | – | – | – | – | – | – | – | – | – | – | – | – | – | – | – | – | –
[H]/N=C(/N)N[C@H]1[C@H](O)[C@@H](O)[C@H](O[C@@H]2O[C@@H](C)[C@](O)(C=O)[C@H]2O[C@@H]2O[C@@H](CO)[C@H](O)[C@@H](O)[C@@H]2NC)[C@@H](N/C(N)=N\[H])[C@@H]1O [Streptomycin] | 1.13 | – | – | – | – | – | – | – | – | – | – | – | – | – | – | – | – | – | – | – | FICI, single-point BisEDT-antibiotic combination [2]: 0.95; FICI, single-point BisEDT-antibiotic combination [3]: 0.61; FICI, single-point BisEDT-antibiotic combination [4]: 1.29; FICI, single-point BisEDT-antibiotic combination [5]: 1.04; FICI, single-point BisEDT-antibiotic combination [6]: 1.98; FICI, single-point BisEDT-antibiotic combination [7]: 1.37; FICI, single-point BisEDT-antibiotic combination [8]: 1.12; FICI, single-point BisEDT-antibiotic combination [9]: 2.62; FICI, single-point BisEDT-antibiotic combination [10]: 0.66
Capreomycin | 0.75 | – | – | – | – | – | – | – | – | – | – | – | – | – | – | – | – | – | – | – | –
bismuth pyrithione/butanedithiol [MB-8-2] | – | 2 | 1.11 | 1.11 | 2 | 1.23 | 2 | 0.80 | 2 | 1.11 | 2 | 1.23 | 2 | 1.23 | 2 | 0.98 | 0.5 | 1.37 | 0.5 | 1.37 | MIC (μg/mL) Alone ([12]; K. pneumoniae 2238): 0.5 µg/mL; FICI, Fractional Inhibitory Concentration Index ([12]; K. pneumoniae 2238): 1.37; MIC (μg/mL) Alone ([12]; K. pneumoniae 2541): 1 µg/mL; FICI, Fractional Inhibitory Concentration Index ([12]; K. pneumoniae 2541): 1.12; MIC (μg/mL) Alone ([12]; K. pneumoniae 2546): 1 µg/mL; MIC (μg/mL) Alone ([12]; K. pneumoniae 2549): 1 µg/mL; FICI, Fractional Inhibitory Concentration Index ([12]; K. pneumoniae 2549): 1.12; Effect on S. aureus strains in vitro from PMMA cement beads [13]: inhibitory effects; S. aureus infection detected on hardware, effect on Cefazolin activity [14]: enhanced antibiotic activity; S. aureus infection of injured bone, effect on Cefazolin activity [14]: enhanced
bismuth pyrithione/ethanedithiol [MB-11] | – | 1 | 0.12 | 1.12 | 1 | 1.12 | 1 | 1.12 | 0.5 | 1.12 | 0.5 | 0.87 | 0.5 | 0.93 | 0.5 | 0.87 | 0.5 | 1.37 | 0.5 | 1.87 | MIC (μg/mL) Alone ([12]; K. pneumoniae 2238): 0.5 µg/mL; FICI, Fractional Inhibitory Concentration Index ([12]; K. pneumoniae 2238): 1.37; MIC (μg/mL) Alone ([12]; K. pneumoniae 2541): 0.5 µg/mL; FICI, Fractional Inhibitory Concentration Index ([12]; K. pneumoniae 2541): 0.73; MIC (μg/mL) Alone ([12]; K. pneumoniae 2546): 0.5 µg/mL; FICI, Fractional Inhibitory Concentration Index ([12]; K. pneumoniae 2546): 1.37; MIC (μg/mL) Alone ([12]; K. pneumoniae 2549): 0.5 µg/mL; FICI, Fractional Inhibitory Concentration Index ([12]; K. pneumoniae 2549): 1.37; Effect on S. aureus strains in vitro from PMMA cement beads [13]: inhibitory effects; S. aureus infection detected on hardware, effect on Cefazolin activity [14]: enhanced antibiotic activity; S. aureus infection of injured bone, effect on Cefazolin activity [14]: enhanced
